Results on 6 compounds are retold here after ChEMBL document CHEMBL4118022, “Unguiculin A and Ptilomycalins E-H, Antimalarial Guanidine Alkaloids from the Marine Sponge Monanchora unguiculata” (J Nat Prod, 2017).

SMILES strings stand for the structures.

For one series, the system named is Plasmodium falciparum. Description: Antiplasmodial activity against Plasmodium falciparum 3D7 erythrocytic stage assessed as reduction in parasitic LDH activity measured after 48 hrs by colorimetric method. The format is functional, organism-based. The note with it: 3D7, 48 h.
A further series has as its system KB. Description: Cytotoxicity against human KB cells after 72 hrs by CellTiter96 AQueous one solution assay. The format is cell-based.
Series [1] can be described thus: Selectivity index, ratio of IC50 for human KB cells to IC50 for Plasmodium falciparum 3D7 erythrocytic stage. The format is toxicity. The note with it: KB cells versus Plasmodium falciparum 3D7 erythrocytic stage, read-out: Ratio IC50.

As to `CC[C@@H]1C=CCC[C@]2(C[C@H]3CC[C@H]4[C@@H](C(=O)OCCCCCCCCCCCCCCCC5=NCCCN5CC(O)CCN)[C@@]5(CCC[C@H](C)O5)NC(=N2)N34)O1` (some centres undefined), the figures for the IC50 in the series on Plasmodium falciparum and in the series with KB were 240 nM and 1170 nM, respectively. Moreover, the selectivity ratio in series [1] was determined as 4.9.

Regarding `CC[C@@H]1C=CCC[C@]2(C[C@H]3CC[C@H]4[C@@H](C(=O)OCCCCCCCCCCCCCCCC(=O)N(CCCCNC(=N)N)CCCNC(=N)N)[C@@]5(CCC[C@H](C)O5)NC(=N2)N34)O1`, the IC50 in the series with Plasmodium falciparum is 350 nM; in the series on KB, 850 nM. Further, the selectivity ratio in series [1] is 2.4.

Take `CC[C@@H]1C=CCC[C@]2(C[C@H]3CC[C@H]4[C@@H](C(=O)OCCCCCCCCCCCCCCCC(=O)N(CCCCNC(=N)N)CCCNC=O)[C@@]5(CCC[C@H](C)O5)NC(=N2)N34)O1`: the results for the 50% inhibitory concentration (IC50) with Plasmodium falciparum and in the series with KB were 230 nM and 1610 nM, respectively. Also, the selectivity ratio in series [1] came out at 7.

As to `CCCCCCCCCCCCCCCC(=O)N(CCCCNC(=N)N)CCCNC(=N)N`, the results for the concentration for half-maximal inhibition (IC50) with Plasmodium falciparum and in the series with KB were 12900 nM and 7660 nM, respectively. In series [1], the selectivity ratio amounted to 0.6.

In turn, `CC[C@@H]1C=CCC[C@]2(C[C@H]3CC[C@H]4[C@@H](C(=O)OCCCCCCCCCCCCCCCC(=O)O)[C@@]5(CCC[C@H](C)O5)NC(=N2)N34)O1` yielded a 50% inhibitory concentration (IC50) in the series with KB of 8800 nM.

`C[C@@H]1CC[C@H]2[C@@H](C)C(=O)O[C@@H]3O[C@@]4(C)CC[C@@H]1[C@]32OO4` [ARTEMISININ]: the IC50 with Plasmodium falciparum was found to be 4 nM.

For orientation: IC50 means the concentration that inhibits the measured activity by half.
